# Patent US20230113944A1, “COMPOSITIONS AND METHODS FOR THE TREATMENT OF NEURODEGENERATIVE DISEASES” (priority 2020, published 2023)
# “Also recorded” adds a separate entry of the source. Read-outs that look alike come from different tables or passages of the source.
# How the values were obtained:
# [1] = molecular target: T1, human nSMase2 (Homo sapiens, UniProt Q9NY59); test: biochemical; format: biochemical
# T1 construct: expressed in transfected cells; host or cells: HEK293T
# T1 sequence (Q9NY59 1-655): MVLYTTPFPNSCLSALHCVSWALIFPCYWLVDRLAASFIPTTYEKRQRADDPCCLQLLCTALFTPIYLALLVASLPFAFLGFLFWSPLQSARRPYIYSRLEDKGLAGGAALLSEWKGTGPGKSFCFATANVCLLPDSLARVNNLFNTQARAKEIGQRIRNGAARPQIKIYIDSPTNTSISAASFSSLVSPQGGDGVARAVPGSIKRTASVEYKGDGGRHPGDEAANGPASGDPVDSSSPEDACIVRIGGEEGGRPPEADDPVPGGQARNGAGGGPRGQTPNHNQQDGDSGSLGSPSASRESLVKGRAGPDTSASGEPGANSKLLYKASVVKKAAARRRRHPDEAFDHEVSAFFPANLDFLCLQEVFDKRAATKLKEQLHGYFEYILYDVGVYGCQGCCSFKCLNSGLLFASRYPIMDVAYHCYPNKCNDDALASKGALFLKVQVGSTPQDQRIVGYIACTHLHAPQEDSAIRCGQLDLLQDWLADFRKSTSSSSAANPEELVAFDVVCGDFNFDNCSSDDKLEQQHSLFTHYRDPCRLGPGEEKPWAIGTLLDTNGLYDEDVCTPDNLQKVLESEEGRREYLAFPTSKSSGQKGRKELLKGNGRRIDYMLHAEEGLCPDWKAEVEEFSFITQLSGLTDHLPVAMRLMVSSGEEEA
# Experimental: To evaluate nSMase2 inhibitory activity of tested compounds, cell lysates from HEK293T cells over-expressing human nSMase2 were used as the source of the nSMase2 enzyme. The Amplex Red Sphingomyelinase activity assay was performed according to previously a described protocol^1. Confluent cells were washed with PBS and harvested with lysis buffer [100 mM Tris-HCl pH 7.5, 100 mM sucrose, 100 μM PMSF, 1× protease inhibitor cocktail] using a cell scraper, and then sonicated 3 times on ice for 10 sec and centrifuged at 10,000×g for 10 min at 4° C. to remove remaining cell debris. An initial screening of a compound library was performed using 50 μM compound concentrations. In secondary testing, selected compounds were analyzed at multiple compound concentrations and plotted as a percentage of DMSO control; dose-response curves were generated to determine IC50s using GraphPad Prism software (GraphPad Software, La Jolla Calif.). […] Activity of the enzyme in the presence of the different concentrations of the inhibitors was plotted against substrate concentration and the maximal rate of the enzymatic reaction (Vmax) and Michaelis constant were calculated using GraphPad Prism.
# [2] = molecular target: T2, Human AChE (Homo sapiens, UniProt P22303); test: biochemical
# T2 construct: purchased Sigma
# T2 sequence (P22303 32-614): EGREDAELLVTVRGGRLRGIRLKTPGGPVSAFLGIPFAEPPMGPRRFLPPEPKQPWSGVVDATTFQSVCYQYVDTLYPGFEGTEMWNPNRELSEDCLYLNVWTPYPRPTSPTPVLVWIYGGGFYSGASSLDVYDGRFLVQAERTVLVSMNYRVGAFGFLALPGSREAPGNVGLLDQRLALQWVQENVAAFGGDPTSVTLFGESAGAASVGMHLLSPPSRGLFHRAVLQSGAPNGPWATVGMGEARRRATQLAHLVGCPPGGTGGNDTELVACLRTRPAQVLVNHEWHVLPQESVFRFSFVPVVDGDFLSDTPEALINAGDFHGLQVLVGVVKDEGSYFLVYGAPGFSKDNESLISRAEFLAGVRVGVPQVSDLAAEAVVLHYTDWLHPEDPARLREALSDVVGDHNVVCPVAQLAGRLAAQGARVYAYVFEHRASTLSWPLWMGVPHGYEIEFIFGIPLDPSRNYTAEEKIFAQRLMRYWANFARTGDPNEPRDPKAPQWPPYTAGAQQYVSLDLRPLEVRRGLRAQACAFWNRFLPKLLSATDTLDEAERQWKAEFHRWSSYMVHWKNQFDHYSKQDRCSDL
# Experimental: This acetylcholinesterase (AChE) assay is based on an Amplex Red assay kit (Thermo Fisher A12217). Human AChE (Sigma) was used. Briefly, 5 μL of compounds at the desired concentration were loaded into wells of a 384-well plate. Then, 5 μl of human AChE (30 mU/mL) was loaded into each well, followed by the addition of 10 μL of the working solution which contains 400 μM Amplex Red reagent, 2 U/mL HRP, 0.2 U/mL choline oxidase, and 100 μM acetylcholine. The reaction was monitored for 60 minutes and read at 530/590 nm. AChE IC50 was determined by plotting AChE activity as a percentage of DMSO control using GraphPad Prism software.
# [3] = molecular target: human serum albumin (HSA) (Homo sapiens, UniProt P02768); test: Binding to human serum albumin (HSA); settings: for fraction unbound: human, human serum albumin
# human serum albumin (HSA), sequence (P02768 25-609): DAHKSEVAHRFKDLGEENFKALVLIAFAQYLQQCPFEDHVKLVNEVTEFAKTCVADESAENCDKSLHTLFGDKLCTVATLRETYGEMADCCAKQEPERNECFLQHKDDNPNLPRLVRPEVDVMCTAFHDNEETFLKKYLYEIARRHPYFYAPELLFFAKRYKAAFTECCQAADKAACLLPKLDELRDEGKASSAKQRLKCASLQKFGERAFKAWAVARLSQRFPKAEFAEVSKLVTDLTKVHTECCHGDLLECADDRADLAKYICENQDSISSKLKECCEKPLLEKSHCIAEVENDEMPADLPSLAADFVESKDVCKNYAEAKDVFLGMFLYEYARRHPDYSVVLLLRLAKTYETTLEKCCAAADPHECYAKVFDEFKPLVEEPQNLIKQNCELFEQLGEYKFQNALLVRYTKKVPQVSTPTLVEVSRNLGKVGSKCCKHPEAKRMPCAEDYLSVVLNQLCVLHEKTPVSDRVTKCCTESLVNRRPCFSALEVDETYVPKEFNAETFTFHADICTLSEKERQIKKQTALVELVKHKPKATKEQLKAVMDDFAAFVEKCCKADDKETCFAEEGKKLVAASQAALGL
# [4] = Parallel artificial membrane permeability (IAM column) prediction of CNS permeability; format: in vitro ADME
# Experimental: To predict the potential for brain permeability, a Regis Technologies analytical column connected to an Agilent HPLC system (Infinity 1260 quaternary pump and multiple wavelength detector; 1200 autosampler) was used. An IAM.PC.DD column was (4.6 mm i.d.×10 cm, particle size 5 μm; pore size 300 Å) conditioned with 20 column volumes of mobile phase or until a stable line was achieved. A mobile phase with a consistent flow rate of 1 mL/min was used comprising 100 mM Na2PO4 (solvent A) and acetonitrile (solvent B); compounds were eluted using a gradient (min/% B: 0/30, 10/60, 11/30, 15/30). Detector settings were 220, 250 and 280 nm and acquisition time was 15 min. The autosampler injected 10 μL of compound at 2 mM final, diluted from 10 mM in DMSO in 70:30 (water:acetonitrile). After elution, compound retention and void volume times were obtained from the chromatogram. The IAM capacity factor: (KIAM) was calculated using the equation: […]
# where tr is the retention time of a compound and t0 is the void volume time of the column. To predict CNS permeability, we used the correlation described by the formula below.
SMILES,IC50 ([1]; IC50 (nSMase2) Groups: A-D) [µM],IC50 ([2]; AChE activity) [µM],also measured
COc1ccc2c(n1)[C@]1(C)CCO[C@@H]1N2,> 50,,
COc1ccc2c(n1)[C@]1(c3ccccc3)CCO[C@@H]1N2,> 50,,
C=CC[C@@]12CCO[C@@H]1Nc1ccc(OC)nc12,> 50,,
COc1ccc2c(n1)[C@]1(C)CCCO[C@@H]1N2,> 50,,
COc1ccc2c(n1)[C@]1(C)CCN(S(=O)(=O)c3ccc(C)cc3)[C@@H]1N2,10 to 50,,
C=CC[C@@]12CCN(S(=O)(=O)c3ccc(C)cc3)[C@@H]1Nc1ccc(OC)nc12,> 50,,
COC(=O)N1CCC[C@@]2(C)c3nc(OC)ccc3N[C@@H]12,> 50,,
C[C@@]12CCO[C@@H]1Nc1ccc(Br)nc12,> 50,,
C[C@@]12CCO[C@@H]1Nc1ccc(Cl)nc12,> 50,,
COc1ccnc2c1N[C@H]1OCC[C@@]21C,> 50,,
COc1nccc2c1N[C@H]1OCC[C@@]21C,> 50,,
COc1cnc2c(c1)[C@]1(C)CCO[C@@H]1N2,> 50,,
C[C@@]12CCO[C@@H]1Nc1cccnc12,> 50,,
C[C@@]12CCO[C@@H]1Nc1ncccc12,> 50,,
C[C@@]12CCO[C@@H]1Nc1ccc(OCc3ccccc3)nc12,> 50,,
CN1c2ccc(OCc3ccccc3)nc2[C@]2(C)CCO[C@H]12,> 50,,
CCN1c2ccc(OCc3ccccc3)nc2[C@]2(C)CCO[C@H]12,> 50,,
C[C@@]12CCO[C@@H]1Nc1ccc(O)nc12,> 50,,
CN1c2ccc(O)nc2[C@]2(C)CCO[C@H]12,1 to 10,,
CCN1c2ccc(O)nc2[C@]2(C)CCO[C@H]12,1 to 10,,
CN1c2ccc(OC(=O)Nc3ccccc3)nc2[C@]2(C)CCO[C@H]12,1 to 10,,
CN1c2ccc(OC(=O)Nc3ccncc3)cc2[C@]2(C)CCO[C@H]12 (racemic),,> 5,
"CN1c2ccc(OC(=O)Nc3ccccc3)cc2[C@]2(C)CCO[C@H]12 [Compound 1, phensvenine]",,,nSMase2 inhibitory activity [1]: has nSMase2 inhibitory activity; also recorded: weak nSMase2 inhibition; IC50 ([1]; IC50 nSMase2): > 1 µM; fraction unbound [3]: 0.12; CNS perm (PAMPA) [4]: 3.2; IC50 ([2]; AChE IC50): 0.5 µM
COc1ccc(NC(=O)Oc2ccc3c(c2)[C@]2(C)CCO[C@@H]2N3C)cc1 [Compound 2],,,IC50 ([1]; IC50 nSMase2): 0.7 µM; fraction unbound [3]: 0.15; CNS perm (PAMPA) [4]: 2; IC50 ([2]; IC50 AChE): 3.6 µM
COc1cccc(NC(=O)Oc2ccc3c(c2)[C@]2(C)CCO[C@@H]2N3C)c1 [Compound 3],,,fraction unbound [3]: 0.1; CNS perm (PAMPA) [4]: 2.3; IC50 ([2]; IC50 AChE): 0.1 µM

SMILES,IC50 ([1]; IC50 (nSMase2) Groups: A-D) [µM],IC50 ([2]; AChE activity) [µM],also measured
CN1c2ccc(OC(=O)Nc3ccc(OC(F)(F)F)cc3)cc2[C@]2(C)CCO[C@H]12 [Compound 4],,,IC50 ([1]; IC50 nSMase2): 2.7 µM; fraction unbound [3]: 0.33; CNS perm (PAMPA) [4]: 0.7; IC50 ([2]; IC50 AChE): > 5 µM
CN1c2ccc(OC(=O)NC3CCCCC3)cc2[C@]2(C)CCO[C@H]12 [Compound 5],,,IC50 ([1]; IC50 nSMase2): 3.4 µM; fraction unbound [3]: 0.17; CNS perm (PAMPA) [4]: 2.8; IC50 ([2]; IC50 AChE): 0.3 µM
Cc1cc(C)cc(NC(=O)Oc2ccc3c(c2)[C@]2(C)CCO[C@@H]2N3C)c1 [Compound 6],,,IC50 ([1]; IC50 nSMase2): 3.6 µM; fraction unbound [3]: 0.04; CNS perm (PAMPA) [4]: 3.1; IC50 ([2]; IC50 AChE): 0.2 µM
COc1cc(NC(=O)Oc2ccc3c(c2)[C@]2(C)CCO[C@@H]2N3C)cc(OC)c1 [Compound 7],,,IC50 ([1]; IC50 nSMase2): 2 µM; fraction unbound [3]: 0.09; CNS perm (PAMPA) [4]: 1.8; IC50 ([2]; IC50 AChE): 0.3 µM
CC[C@H]1C[C@@]2(C)c3cc(OC(=O)Nc4ccccc4)ccc3N(C)[C@H]2O1 [Compound 9],,,IC50 ([1]; IC50 nSMase2): > 5 µM; fraction unbound [3]: 0.07; CNS perm (PAMPA) [4]: 3; IC50 ([2]; IC50 AChE): 2.5 µM
CC[C@@H]1C[C@@]2(C)c3cc(OC(=O)Nc4ccccc4)ccc3N(C)[C@H]2O1 [Compound 10],,,fraction unbound [3]: 0.05; CNS perm (PAMPA) [4]: 3.2; IC50 ([2]; IC50 AChE): 3.7 µM
CN1c2ccc(OC(=O)Nc3ccccn3)cc2[C@]2(C)CCO[C@H]12 [Compound 12],,,IC50 ([1]; IC50 nSMase2): 0.8 µM; degree of binding to human serum albumin (HSA) [3]: low degree of binding; fraction unbound [3]: 0.28; CNS perm (PAMPA) [4]: 1.9; IC50 ([2]; IC50 AChE): > 5 µM
CN1c2ccc(OC(=O)Nc3ccc(C(F)(F)F)cc3)cc2[C@]2(C)CCO[C@H]12 [Compound 15],,,"fraction unbound [3]: 0.07; CNS perm (PAMPA) ([4]; PAMPA, 2 mM): 2.2; IC50 ([2]; IC50 AChE): > 5 µM"
CCN(C)C(=O)Oc1ccc2c(c1)[C@]1(C)CCO[C@@H]1N2C [Compound 16],,,"IC50 ([2]; IC50 AChE, Table 2, unit not in table, μM): > 5 µM"
CN1c2ccc(OC(=O)Nc3ccccc3)cc2[C@]2(C)CCO[C@H]12 [drawing 32],1 to 10,< 0.5,
COc1ccc(NC(=O)Oc2ccc3c(c2)[C@]2(C)CCO[C@@H]2N3C)cc1 [drawing 33],1 to 10,2.5 to 5,
COc1cccc(NC(=O)Oc2ccc3c(c2)[C@]2(C)CCO[C@@H]2N3C)c1 [drawing 34],1 to 10,< 0.5,
CN1c2ccc(OC(=O)Nc3ccc(OC(F)(F)F)cc3)cc2[C@]2(C)CCO[C@H]12 [drawing 35],10 to 50,> 5,
CN1c2ccc(OC(=O)NC3CCCCC3)cc2[C@]2(C)CCO[C@H]12 [drawing 36],1 to 10,< 0.5,
Cc1cc(C)cc(NC(=O)Oc2ccc3c(c2)[C@]2(C)CCO[C@@H]2N3C)c1 [drawing 37],1 to 10,< 0.5,
COc1cc(NC(=O)Oc2ccc3c(c2)[C@]2(C)CCO[C@@H]2N3C)cc(OC)c1 [drawing 38],1 to 10,< 0.5,
CC[C@H]1C[C@@]2(C)c3cc(OC(=O)Nc4ccccc4)ccc3N(C)[C@H]2O1 [drawing 42],1 to 10,2.5 to 5,
CC[C@@H]1C[C@@]2(C)c3cc(OC(=O)Nc4ccccc4)ccc3N(C)[C@H]2O1 [drawing 43],1 to 10,2.5 to 5,
CN1c2ccc(OC(=O)Nc3ccccn3)cc2[C@]2(C)CCO[C@H]12 [drawing 45],< 1,> 5,
CN1c2ccc(OC(=O)Nc3ccncc3F)cc2[C@]2(C)CCO[C@H]12 [drawing 62],< 1,> 5,
CN1c2ccc(OC(=O)Nc3cncc(F)c3)cc2[C@]2(C)CCO[C@H]12 [drawing 63],< 1,> 5,
CN1c2ccc(OC(=O)Nc3ccc(C(F)(F)F)cc3)cc2[C@]2(C)CCO[C@H]12 [drawing 64],1 to 10,> 5,
CCN(C)C(=O)Oc1ccc2c(c1)[C@]1(C)CCO[C@@H]1N2C [drawing 65],,> 5,
"CN1CC[C@@]2(C)c3cc(OC(=O)Nc4ccccc4)ccc3N(C)[C@@H]12 [phenserine, reference compound]",,,IC50 ([1]; nSMase2 IC50): > 50 µM
